{
  "source": "ChEMBL document CHEMBL1201862",
  "about": "“PubChem BioAssay data set” (2004)",
  "key": {"[1]": {"assay": "HEK293 cell cytotoxicity, dose response, cytotoxicity control, luminescence, dry powder, set 12 (AID 743354)", "format": "functional, cell-based"}, "[2]": {"molecular_target": "Cytochrome P450 3A4 (Homo sapiens, UniProt P08684)", "sequence (P08684 whole entry)": "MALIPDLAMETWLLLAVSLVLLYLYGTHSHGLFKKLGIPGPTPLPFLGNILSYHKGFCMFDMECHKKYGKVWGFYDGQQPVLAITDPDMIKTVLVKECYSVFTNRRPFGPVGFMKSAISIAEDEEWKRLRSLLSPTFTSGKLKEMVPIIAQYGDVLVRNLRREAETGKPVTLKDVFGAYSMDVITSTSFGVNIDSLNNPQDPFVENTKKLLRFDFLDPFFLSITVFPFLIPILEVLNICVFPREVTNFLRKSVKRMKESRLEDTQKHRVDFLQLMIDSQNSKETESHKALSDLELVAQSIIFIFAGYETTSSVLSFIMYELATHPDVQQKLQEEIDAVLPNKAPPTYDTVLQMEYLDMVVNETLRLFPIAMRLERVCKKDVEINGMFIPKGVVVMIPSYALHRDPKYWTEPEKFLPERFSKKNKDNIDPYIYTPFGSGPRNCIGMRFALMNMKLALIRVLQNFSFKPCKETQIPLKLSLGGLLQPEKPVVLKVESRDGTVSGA"}, "[3]": {"molecular_target": "T1, Cytochrome P450 1A2 (Homo sapiens, UniProt P05177)", "T1 sequence (P05177 whole entry)": "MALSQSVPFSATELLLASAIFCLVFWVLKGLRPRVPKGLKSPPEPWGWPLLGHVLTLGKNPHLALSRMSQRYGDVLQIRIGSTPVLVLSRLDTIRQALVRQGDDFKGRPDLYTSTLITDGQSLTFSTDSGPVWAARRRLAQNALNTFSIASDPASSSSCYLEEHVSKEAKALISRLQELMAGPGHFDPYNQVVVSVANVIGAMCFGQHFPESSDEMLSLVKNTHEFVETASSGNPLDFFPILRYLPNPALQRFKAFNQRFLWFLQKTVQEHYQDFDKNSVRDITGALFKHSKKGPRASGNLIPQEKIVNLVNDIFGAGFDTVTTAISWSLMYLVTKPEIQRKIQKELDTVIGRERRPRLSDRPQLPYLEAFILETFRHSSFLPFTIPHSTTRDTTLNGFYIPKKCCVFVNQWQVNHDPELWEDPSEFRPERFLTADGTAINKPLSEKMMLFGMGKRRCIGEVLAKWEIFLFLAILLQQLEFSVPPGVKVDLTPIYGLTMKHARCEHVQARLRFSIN"}, "[4]": {"assay": "Dose-response inhibition of insulin secretion in a rat insulinoma line at 5 mM glucose (AID 1117331)", "format": "functional, cell-based", "conditions": "INS-1E"}, "[5]": {"molecular_target": "T2, Fibrinogen beta chain (Homo sapiens, UniProt P02675)", "T2 sequence (P02675 whole entry, the tested form may be a part)": "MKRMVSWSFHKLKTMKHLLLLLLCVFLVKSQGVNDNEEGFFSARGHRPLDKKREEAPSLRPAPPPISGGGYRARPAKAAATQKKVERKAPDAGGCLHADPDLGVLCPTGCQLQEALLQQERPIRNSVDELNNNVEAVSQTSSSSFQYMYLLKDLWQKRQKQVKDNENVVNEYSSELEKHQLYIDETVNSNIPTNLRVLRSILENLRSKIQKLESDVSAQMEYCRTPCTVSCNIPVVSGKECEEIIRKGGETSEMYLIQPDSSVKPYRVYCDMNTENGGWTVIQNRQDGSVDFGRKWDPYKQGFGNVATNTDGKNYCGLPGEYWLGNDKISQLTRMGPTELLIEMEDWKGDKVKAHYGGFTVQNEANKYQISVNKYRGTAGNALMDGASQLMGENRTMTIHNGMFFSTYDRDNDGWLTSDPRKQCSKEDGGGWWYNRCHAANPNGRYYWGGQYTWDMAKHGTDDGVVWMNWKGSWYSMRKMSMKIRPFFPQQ", "assay": "Fluorescence polarization-based biochemical high throughput dose response assay to identify inhibitors that disrupt the binding of a cyclic peptide (Tn7) to the fibrin proteolytic product D-Dimer and fragment E complex [DD(E )]."}, "[6]": {"molecular_target": "T3, Endoribonuclease toxin MazF (Escherichia coli K-12, UniProt P0AE70)", "T3 sequence (P0AE70 whole entry)": "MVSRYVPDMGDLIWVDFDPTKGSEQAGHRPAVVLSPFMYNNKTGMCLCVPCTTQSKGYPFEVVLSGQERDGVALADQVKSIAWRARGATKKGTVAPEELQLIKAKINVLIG", "assay": "fluorescent RNA oligo signal without MazF, dose response, counter-screen for MazEF activator project, biochemical, fluorescence, single-stranded RNase substrate (AID 588502)", "format": "functional"}, "[7]": {"molecular_target": "T2, Fibrinogen beta chain", "assay": "Fluorescence polarization-based biochemical high throughput dose response assay to identify inhibitors that disrupt the binding of a cyclic peptide (Tn6) to the fibrin proteolytic product D-Dimer and fragment E complex [DD(E )]."}, "[8]": {"molecular_target": "T3, Endoribonuclease toxin MazF", "assay": "MazF toxin RNase activators, dose response, biochemical, fluorescence, single-stranded RNA substrate, uHTS hits (AID 588481)", "format": "functional"}, "[9]": {"molecular_target": "Sphingosine 1-phosphate receptor 2 (Homo sapiens, UniProt O95136)", "sequence (O95136 whole entry)": "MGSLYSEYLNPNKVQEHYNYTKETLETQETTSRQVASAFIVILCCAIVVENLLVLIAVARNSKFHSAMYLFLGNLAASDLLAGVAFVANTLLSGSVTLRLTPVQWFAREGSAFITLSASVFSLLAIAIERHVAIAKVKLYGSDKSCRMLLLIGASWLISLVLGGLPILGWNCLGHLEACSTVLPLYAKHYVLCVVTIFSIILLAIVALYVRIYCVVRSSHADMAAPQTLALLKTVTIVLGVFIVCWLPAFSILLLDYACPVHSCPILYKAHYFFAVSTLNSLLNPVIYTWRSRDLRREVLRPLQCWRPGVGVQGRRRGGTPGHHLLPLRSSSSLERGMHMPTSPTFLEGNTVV", "assay": "Dose Response Cell Based Assay for Agonists of the S1P2 Receptor. [Related pubchem assays: 729, 736, 843 ]", "format": "functional"}, "[10]": {"molecular_target": "Paired box protein Pax-8 (Homo sapiens, UniProt Q06710)", "sequence (Q06710 whole entry)": "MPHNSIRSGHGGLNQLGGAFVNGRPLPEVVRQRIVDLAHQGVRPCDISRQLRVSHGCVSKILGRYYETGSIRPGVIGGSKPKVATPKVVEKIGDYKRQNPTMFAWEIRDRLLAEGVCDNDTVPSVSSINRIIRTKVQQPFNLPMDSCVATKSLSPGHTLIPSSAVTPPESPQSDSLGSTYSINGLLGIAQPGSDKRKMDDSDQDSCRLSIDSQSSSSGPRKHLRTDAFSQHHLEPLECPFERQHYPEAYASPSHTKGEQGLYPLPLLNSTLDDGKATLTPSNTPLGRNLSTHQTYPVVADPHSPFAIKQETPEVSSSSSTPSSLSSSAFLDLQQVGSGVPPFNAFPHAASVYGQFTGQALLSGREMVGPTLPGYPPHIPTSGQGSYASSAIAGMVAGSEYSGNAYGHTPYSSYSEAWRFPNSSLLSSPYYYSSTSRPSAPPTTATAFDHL", "assay": "inhibitors of PAX8-driven TPO luciferase reporter, dose response, RMG-I cells, cherry-pick (AID 687027);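 further: luciferase reporter driven by Pax8 target thyroperoxidase promoter measured by SteadyGlo luminescence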", "format": "functional, cell-based"}, "[11]": {"assay": "A549 cell cytotoxicity, dose response, cytotoxicity control, 24 h, CellTiter-Glo luminescence, cherry-picks (AID 1053115)", "format": "functional, cell-based", "conditions": "A549, 24 h"}, "[12]": {"assay": "miR-122 activators in hepatoma reporter cells, dose response, cell-based, Huh7 psiCHECK-miR122, Renilla luciferase, cherry-picked (AID 651956);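 further: huh7 hepatoma cells stably carrying a psiCHECK-2 miR-122 sensor plasmid; renilla luciferase signal reporting endogenous miR-122 activity after 48 h compound exposure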", "format": "functional"}, "[13]": {"assay": "HEK293T cytotoxicity, dose response, cytotoxicity control for miR-122 modulator project, cell-based, inhibitor set, cherry-pick, set 2 (AID 720697)", "format": "functional"}, "[14]": {"assay": "A549 cell cytotoxicity, dose response, CellTiter-Glo luminescence, dry powder, set 17 (AID 1117284)", "format": "functional, cell-based"}, "[15]": {"assay": "cytotoxicity in OVCAR8 ovarian cancer cells, dose response, PAX8 project, cell-based, plate reader, dry powder samples (AID 743197)", "format": "functional", "conditions": "OVCAR-8"}, "[16]": {"assay": "HEK293T cytotoxicity, dose response, cytotoxicity control for miR-122 modulator project, cell-based, activator set, cherry-pick (AID 720690);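 further: HEK293T human cells scored for general mammalian cytotoxicity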", "format": "functional"}, "[17]": {"test_system": "Vero", "assay": "cytotoxicity of synthesized analogs in Vero cells, SAR follow-up, cytotoxicity control for West Nile virus antiviral project, cell-based, set II (AID 2402)", "format": "functional", "conditions": "Chlorocebus sabaeus"}, "[18]": {"molecular_target": "Metabotropic glutamate receptor 7 (Homo sapiens, UniProt Q14831)", "sequence (Q14831 whole entry)": "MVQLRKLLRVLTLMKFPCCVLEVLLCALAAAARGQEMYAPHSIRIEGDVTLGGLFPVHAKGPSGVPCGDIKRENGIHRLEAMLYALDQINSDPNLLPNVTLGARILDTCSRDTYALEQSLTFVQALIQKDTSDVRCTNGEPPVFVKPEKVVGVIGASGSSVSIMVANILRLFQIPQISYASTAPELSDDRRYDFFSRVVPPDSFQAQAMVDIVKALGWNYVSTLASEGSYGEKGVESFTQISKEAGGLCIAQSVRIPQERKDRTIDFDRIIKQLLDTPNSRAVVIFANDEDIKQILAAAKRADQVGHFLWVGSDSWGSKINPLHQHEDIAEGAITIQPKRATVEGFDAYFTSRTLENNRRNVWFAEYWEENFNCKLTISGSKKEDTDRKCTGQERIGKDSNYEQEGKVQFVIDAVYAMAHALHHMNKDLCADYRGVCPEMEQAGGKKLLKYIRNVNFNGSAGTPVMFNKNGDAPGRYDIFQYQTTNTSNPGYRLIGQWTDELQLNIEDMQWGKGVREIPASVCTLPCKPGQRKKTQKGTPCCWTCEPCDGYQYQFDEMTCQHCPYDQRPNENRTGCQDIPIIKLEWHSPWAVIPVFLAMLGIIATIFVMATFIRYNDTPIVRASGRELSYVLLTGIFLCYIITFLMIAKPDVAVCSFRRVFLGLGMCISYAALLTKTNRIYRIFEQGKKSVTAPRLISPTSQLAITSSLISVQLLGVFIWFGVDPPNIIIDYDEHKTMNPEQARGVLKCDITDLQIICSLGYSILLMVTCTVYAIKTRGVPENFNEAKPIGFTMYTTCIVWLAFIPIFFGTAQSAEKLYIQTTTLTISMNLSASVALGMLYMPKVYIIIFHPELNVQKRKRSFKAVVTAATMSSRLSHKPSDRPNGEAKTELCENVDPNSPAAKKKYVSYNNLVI", "assay": "mGlu7 positive allosteric modulators, dose response, cell-based, calcium mobilization, Galpha15 (AID 743384)", "format": "functional"}, "[19]": {"molecular_target": "Potassium channel subfamily K member 9 (Homo sapiens, UniProt Q9NPC2)", "sequence (Q9NPC2 whole entry)": "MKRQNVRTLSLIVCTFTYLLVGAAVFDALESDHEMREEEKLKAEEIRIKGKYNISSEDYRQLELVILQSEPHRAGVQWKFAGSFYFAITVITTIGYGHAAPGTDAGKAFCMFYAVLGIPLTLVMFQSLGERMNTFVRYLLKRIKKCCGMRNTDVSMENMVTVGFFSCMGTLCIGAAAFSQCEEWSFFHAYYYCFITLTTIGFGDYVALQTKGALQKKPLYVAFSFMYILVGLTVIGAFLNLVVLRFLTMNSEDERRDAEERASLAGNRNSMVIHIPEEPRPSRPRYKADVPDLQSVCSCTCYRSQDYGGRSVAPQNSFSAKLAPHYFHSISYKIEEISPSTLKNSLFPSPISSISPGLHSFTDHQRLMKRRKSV", "assay": "KCNK9 (TASK3) current inhibition by patch clamp, SAR follow-up, selectivity assay for TASK1 (KCNK3) inhibitor project, cell-based, automated electrophysiology (AID 652210)", "format": "functional"}, "[20]": {"molecular_target": "Potassium channel subfamily K member 3 (Homo sapiens, UniProt O14649)", "sequence (O14649 whole entry)": "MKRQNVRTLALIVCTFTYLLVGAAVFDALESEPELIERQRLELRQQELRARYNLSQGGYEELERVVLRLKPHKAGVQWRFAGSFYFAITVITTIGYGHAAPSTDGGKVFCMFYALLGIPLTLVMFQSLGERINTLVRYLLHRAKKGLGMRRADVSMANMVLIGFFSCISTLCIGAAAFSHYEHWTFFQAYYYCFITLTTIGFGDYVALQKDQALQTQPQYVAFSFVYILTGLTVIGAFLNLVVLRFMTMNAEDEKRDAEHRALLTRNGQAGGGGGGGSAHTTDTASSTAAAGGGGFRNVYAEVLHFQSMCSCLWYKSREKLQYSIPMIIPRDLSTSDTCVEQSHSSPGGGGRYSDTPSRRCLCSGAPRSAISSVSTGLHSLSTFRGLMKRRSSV", "assay": "TASK1 (KCNK3) potassium channel inhibitors, SAR follow-up, CHO cells, FluxOR thallium flux (AID 652212)", "format": "functional"}, "[21]": {"assay": "HEp-2 cell cytotoxicity, dose response, cytotoxicity control for RSV inhibitor project, HTS (AID 2410)", "format": "functional", "conditions": "human respiratory syncytial virus"}, "[22]": {"assay": "Vero cell cytotoxicity, dose response, cytotoxicity control for Vif-APOBEC3G degradation inhibitor project, Vero cells (AID 1117358)", "format": "functional", "conditions": "Human immunodeficiency virus 1, Vero"}},
  "note": "Active and inactive are the calls of the source.",
  "data": [
    {"compound": "CC(=O)c1ccc(N2CCN(C(=O)c3ccccc3F)CC2)cc1", "values": [
      {"measurement": "AC50", "setting": "[1]", "value": "> 52 µM (inactive)"}
    ]},
    {"compound": "O=C(CCCN1CCC(O)(c2ccc(Br)cc2)CC1)c1ccc(F)cc1", "note": "[BROMPERIDOL]", "values": [
      {"measurement": "AC50", "setting": "[2]", "value": "inconclusive"},
      {"measurement": "AC50", "setting": "[3]", "value": "5.01 µM (inconclusive)"},
      {"measurement": "IC50", "setting": "[4]", "value": "> 33.3 µM (inactive)"}
    ]},
    {"compound": "Cc1ccc2c(c1)[C@H]1[C@H](CO2)[C@H](c2ccccc2)[C@]2(C)C(=O)N(Cc3ccc(F)cc3)CC(=O)N12", "values": [
      {"measurement": "IC50", "setting": "[5]", "value": "> 83.3 µM (inactive)"},
      {"measurement": "EC50", "setting": "[6]", "value": "63.9 µM (inactive)"},
      {"measurement": "IC50", "setting": "[7]", "value": "> 83.3 µM (inactive)"},
      {"measurement": "EC50", "setting": "[8]", "value": "3.83 µM (active)"}
    ]},
    {"compound": "COCCNC(=O)CN1CCN(C(c2ccccc2)c2ccccc2)CC1", "values": [
      {"measurement": "EC50", "setting": "[9]", "value": "> 50 µM (not active)"}
    ]},
    {"compound": "C[C@H](O)C#Cc1ccc2c(c1)O[C@@H](CN(C)Cc1ccc(-c3ccccc3)cc1)[C@@H](C)CN([C@@H](C)CO)S2(=O)=O", "values": [
      {"measurement": "AC50", "setting": "[10]", "value": "11.5 µM (active)"},
      {"measurement": "AC50", "setting": "[11]", "value": "> 60 µM (inactive)"},
      {"measurement": "AC50", "setting": "[12]", "value": "14.7 µM (active)"},
      {"measurement": "AC50", "setting": "[13]", "value": "< 0.195 µM (active)"},
      {"measurement": "AC50", "setting": "[14]", "value": "22.6 µM (active)"},
      {"measurement": "AC50", "setting": "[15]", "value": "> 70 µM (inactive)"},
      {"measurement": "AC50", "setting": "[16]", "value": "11.2 µM (active)"}
    ]},
    {"compound": "O=C(CSc1nc2cccc(F)c2c(=O)n1-c1ccccc1)Nc1ccc2c(c1)CCC2", "values": [
      {"measurement": "CC50", "setting": "[17]", "value": "> 200 µM (active)"}
    ]},
    {"compound": "CC(=O)Nc1ccc(SCC(=O)c2cc(C)n(CC3CCCO3)c2C)cc1", "note": "(configuration not stated)", "values": [
      {"measurement": "EC50", "setting": "[18]", "value": "4.8 µM (active)"}
    ]},
    {"compound": "COc1ccccc1C(=O)Nc1cc(NC(=O)c2ccccc2C(C)C)ccc1F", "values": [
      {"measurement": "IC50", "setting": "[19]", "value": "0.71 µM (active)"},
      {"measurement": "IC50", "setting": "[20]", "value": "0.109 µM (active)"}
    ]},
    {"compound": "Cn1nc(C(F)(F)F)c(C#N)c1N1CCN(c2ccc(F)cc2)CC1", "values": [
      {"measurement": "CC50", "setting": "[21]", "value": "8.85 µM (active)"},
      {"measurement": "CC50", "setting": "[22]", "value": "> 40 µM (active)"}
    ]}
  ]
}
